How the values were obtained:
[1] = tested on: Candida albicans (ATCC 38247); assay: Antifungal MIC assay; format: cell-based; conditions: B = C. albicans ATCC 38247
How it was run: (§1)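 Activity is measured as MIC in microtiter broth microdilution under NCCLS M7-A4, M11-A4 and M27-T guidance, with the yeast tested by the method in Murray's Manual of Clinical Microbiology.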

[2] = tested on: S. pneumoniae ATCC 49619; assay: MIC, NCCLS broth microdilution assay; format: cell-based, Streptococcus pneumoniae; conditions: H = S. pneumoniae ATCC 49619
How it was run: (§2)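 MICs were determined by NCCLS broth microdilution following documents M7-A4 and M11-A4 (1997).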

[3] = tested on: Streptococcus pneumoniae (ATCC 51422, a penicillin resistant strain (PRSP)); assay: MIC, NCCLS broth microdilution assay; format: cell-based; conditions: I = S. pneumoniae ATCC 51422
How it was run: as §1

[4] = tested on: Bacillus cereus (ATCC 11778); assay: MIC, NCCLS broth microdilution assay; format: cell-based; conditions: A = B. cereus ATCC 11778
How it was run: as §1

[5] = tested on: Staphylococcus aureus (ATCC 13709, a methicillin sensitive strain (MSSA)); assay: MIC, NCCLS broth microdilution assay; format: cell-based; conditions: E = S. aureus ATCC 13709
How it was run: as §1

[6] = tested on: Staphylococcus epidermidis (ATCC 12228); assay: MIC, NCCLS broth microdilution assay; format: cell-based; conditions: G = S. epidermidis ATCC 12228
How it was run: as §1

[7] = tested on: Enterococcus faecium (ATCC 51559, a vancomycin resistant strain (VRE)); assay: MIC, NCCLS broth microdilution assay; format: cell-based; conditions: D = E. faecium ATCC 51559
How it was run: as §1

[8] = tested on: Staphylococcus aureus (ATCC 27660, a methicillin resistant strain (MRSA)); assay: MIC, NCCLS broth microdilution assay; format: cell-based; conditions: F = S. aureus ATCC 27660
How it was run: as §1

[9] = tested on: E. faecalis ATCC 29212; assay: MIC, NCCLS broth microdilution assay; format: cell-based, Enterococcus faecalis; conditions: C = E. faecalis ATCC 29212
How it was run: as §2

Row | SMILES | Minimum Inhibitory Concentration (MIC) [1] | Minimum Inhibitory Concentration (MIC) [2] | Minimum Inhibitory Concentration (MIC) [3] | Minimum Inhibitory Concentration (MIC) [4] | Minimum Inhibitory Concentration (MIC) [5] | Minimum Inhibitory Concentration (MIC) [6] | Minimum Inhibitory Concentration (MIC) [7] | Minimum Inhibitory Concentration (MIC) [8] | Minimum Inhibitory Concentration (MIC) [9]
1 | CCN(CC)CCNC(=O)c1cc(NC(=O)c2cc(NC(=O)c3cc(NC(=O)c4ccc(Cl)cc4F)c[nH]3)cn2C)cn1C [Compound A-16] | +++ (+++ = MIC ≦ 4) | +++ (+++ = MIC ≦ 4) | +++ (+++ = MIC ≦ 4) | +++ (+++ = MIC ≦ 4) | +++ (+++ = MIC ≦ 4) | +++ (+++ = MIC ≦ 4) | +++ (+++ = MIC ≦ 4) | +++ (+++ = MIC ≦ 4) | +++ (+++ = MIC ≦ 4)
2 | Cn1cc(NC(=O)c2cc(NC(=O)c3ccc(Cl)cc3F)c[nH]2)cc1C(=O)NCCN1CCSCC1 [Compound A-21] | >32 µg/mL | +++ (+++ = MIC ≦ 4) | +++ (+++ = MIC ≦ 4) | +++ (+++ = MIC ≦ 4) | +++ (+++ = MIC ≦ 4) | +++ (+++ = MIC ≦ 4) | +++ (+++ = MIC ≦ 4) | +++ (+++ = MIC ≦ 4) | +++ (+++ = MIC ≦ 4)
3 | Cn1cc(NC(=O)c2cc(NC(=O)c3ccc(Cl)cc3F)c[nH]2)cc1C(=O)NCCN1CCCCC1 [Compound A-18] | >32 µg/mL | +++ (+++ = MIC ≦ 4) | +++ (+++ = MIC ≦ 4) | +++ (+++ = MIC ≦ 4) | +++ (+++ = MIC ≦ 4) | +++ (+++ = MIC ≦ 4) | +++ (+++ = MIC ≦ 4) | +++ (+++ = MIC ≦ 4) | +++ (+++ = MIC ≦ 4)
4 | Cn1cc(NC(=O)c2cc(NC(=O)c3cc(NC(=O)c4ccc(Cl)cc4F)cn3C)cn2C)cc1C(=O)NCCN1CCSCC1 [Compound B-49] | >32 µg/mL | +++ (+++ = MIC ≦ 4) | +++ (+++ = MIC ≦ 4) | +++ (+++ = MIC ≦ 4) | +++ (+++ = MIC ≦ 4) | +++ (+++ = MIC ≦ 4) | +++ (+++ = MIC ≦ 4) | +++ (+++ = MIC ≦ 4) | +++ (+++ = MIC ≦ 4)
5 | Cc1cc(NC(=O)c2cc(NC(=O)c3cc(NC(=O)c4ccc(F)cc4F)c[nH]3)cn2CCN2CCOCC2)sn1 [Compound D-4] | >32 µg/mL | >32 µg/mL | +++ (+++ = MIC ≦ 4) | >32 µg/mL | >32 µg/mL |  |  | >32 µg/mL | >32 µg/mL
6 | Cn1cc(NC(=O)c2cc(NC(=O)c3cc(NC(=O)c4ccc(Cl)c(Cl)c4)cn3C)cn2C)cc1C(=O)NCCN1CCOCC1 [Compound B-53] | >32 µg/mL | +++ (+++ = MIC ≦ 4) | +++ (+++ = MIC ≦ 4) | +++ (+++ = MIC ≦ 4) | +++ (+++ = MIC ≦ 4) | +++ (+++ = MIC ≦ 4) | +++ (+++ = MIC ≦ 4) | +++ (+++ = MIC ≦ 4) | +++ (+++ = MIC ≦ 4)
7 | Cn1cc(NC(=O)c2cc(NC(=O)c3cc(NC(=O)c4ccc(F)cc4F)cn3C)cn2C)cc1C(=O)NCCc1ccncc1 [Compound B-22] | >32 µg/mL | +++ (+++ = MIC ≦ 4) | +++ (+++ = MIC ≦ 4) | +++ (+++ = MIC ≦ 4) | +++ (+++ = MIC ≦ 4) | +++ (+++ = MIC ≦ 4) | +++ (+++ = MIC ≦ 4) | +++ (+++ = MIC ≦ 4) | +++ (+++ = MIC ≦ 4)
8 | Cn1cc(NC(=O)c2cc(NC(=O)c3cc(NC(=O)c4ccc(Cl)cc4)cn3C)cn2C)cc1C(=O)NCCN1CCSCC1 [Compound B-58] | >32 µg/mL | +++ (+++ = MIC ≦ 4) | +++ (+++ = MIC ≦ 4) | +++ (+++ = MIC ≦ 4) | +++ (+++ = MIC ≦ 4) | ++ (++ = 4 < MIC < 12) | + (+ = 12 ≦ MIC ≦ 32) | +++ (+++ = MIC ≦ 4) | +++ (+++ = MIC ≦ 4)
9 | Cn1cc(NC(=O)c2cc(NC(=O)c3ccc(Cl)cc3F)c[nH]2)cc1C(=O)NCCN1CCC(F)(F)CC1 [Compound A-22] | >32 µg/mL | +++ (+++ = MIC ≦ 4) | +++ (+++ = MIC ≦ 4) | +++ (+++ = MIC ≦ 4) | +++ (+++ = MIC ≦ 4) | +++ (+++ = MIC ≦ 4) | +++ (+++ = MIC ≦ 4) | +++ (+++ = MIC ≦ 4) | +++ (+++ = MIC ≦ 4)
10 | Cn1cc(NC(=O)c2cc(NC(=O)c3cc(NC(=O)c4ccc(C#N)cc4)cn3C)cn2C)cc1C(=O)NCCN1CCSCC1 [Compound B-68] | >32 µg/mL | +++ (+++ = MIC ≦ 4) | +++ (+++ = MIC ≦ 4) | +++ (+++ = MIC ≦ 4) | +++ (+++ = MIC ≦ 4) | +++ (+++ = MIC ≦ 4) | +++ (+++ = MIC ≦ 4) | +++ (+++ = MIC ≦ 4) | +++ (+++ = MIC ≦ 4)
11 | CN(C)CCCNC(=O)c1cc(NC(=O)c2cc(NC(=O)c3cc(NC(=O)c4ccc(Cl)cc4F)c[nH]3)cn2C)cn1C [Compound A-13] | +++ (+++ = MIC ≦ 4) | +++ (+++ = MIC ≦ 4) | +++ (+++ = MIC ≦ 4) | +++ (+++ = MIC ≦ 4) | +++ (+++ = MIC ≦ 4) | +++ (+++ = MIC ≦ 4) | + (+ = 12 ≦ MIC ≦ 32) | +++ (+++ = MIC ≦ 4) | ++ (++ = 4 < MIC < 12)
12 | Cn1cc(NC(=O)c2cc(NC(=O)c3cc(NC(=O)c4cc(NC(=O)c5ccc(F)cc5F)c[nH]4)cn3C)cn2C)cc1C(=O)NCCN1CCOCC1 [Compound A-2] | >32 µg/mL |  |  | +++ (+++ = MIC ≦ 4) |  | + (+ = 12 ≦ MIC ≦ 32) | + (+ = 12 ≦ MIC ≦ 32) | + (+ = 12 ≦ MIC ≦ 32) | ++ (++ = 4 < MIC < 12)
13 | Cn1cc(NC(=O)c2cc(NC(=O)c3ccc(F)cc3)cn2C)cc1C(=O)NCCN1CCOCC1 [Compound B-36] | >32 µg/mL | + (+ = 12 ≦ MIC ≦ 32) | >32 µg/mL | >32 µg/mL | >32 µg/mL |  | + (+ = 12 ≦ MIC ≦ 32) | >32 µg/mL | >32 µg/mL
14 | Cn1cc(NC(=O)c2cc(NC(=O)c3cc(NC(=O)c4ccc(F)cc4F)c[nH]3)cn2C)cc1C(=O)NCCCN1CCC(O)CC1 [Compound A-11] | + (+ = 12 ≦ MIC ≦ 32) | + (+ = 12 ≦ MIC ≦ 32) |  | + (+ = 12 ≦ MIC ≦ 32) | ++ (++ = 4 < MIC < 12) |  |  | + (+ = 12 ≦ MIC ≦ 32) | + (+ = 12 ≦ MIC ≦ 32)
15 | Cn1cc(NC(=O)c2cc(NC(=O)c3ccc(F)cc3F)cn2C)cc1C(=O)NCCN1CCCCC1 [Compound B-14] | >32 µg/mL | +++ (+++ = MIC ≦ 4) |  | ++ (++ = 4 < MIC < 12) | +++ (+++ = MIC ≦ 4) |  |  | +++ (+++ = MIC ≦ 4) | +++ (+++ = MIC ≦ 4)

From patent publication US7348427B2, “Antipathogenic benzamide compounds” (Genesoft Pharmaceuticals, Inc., priority 2001, dated 2008)
